Assays:
hERG channel = molecular target: T1, hERG channel (Homo sapiens, UniProt Q12809); test: Cardiotoxicity, Predictor hERG fluorescence polarization kit; format: binding
T1 construct: purchased Thermo Fisher Scientific
Method: (§1) Several parameters have been evaluated to determine ADME-Tox profile of the compounds. Two specific toxicity assays have been performed to assess hepatoxicity and cardiotoxicity. Hepatotoxicity was evaluated in isolated hepatocytes from swiss mice and determined by the thiazolyl blue tetrazolium bromide colorimetric assay (sigma, St Louis, MO, USA). Cardiotoxicity was evaluated using the commercially available Predictor hERG fluorescence polarization kit (Thermo Fisher Scientific, Illinois, USA). Several absorption, distribution, metabolism, and excretion (ADME) assays have been carried out. The following experiments were undertaken: stability in human microsomes, binding to human plasma protein, and CYP3A4 inhibition assay (Vivid CYP3A4 assay, Thermo Fisher Scientific, Illinois, USA). Physico-chemical properties were also assessed such as aqueous solubility and chemical stability.

Chemical stability = format: physicochemical; conditions: Table S5
Method: as §1

hNGAL [1] = molecular target: T2, hNGAL (Homo sapiens, UniProt P80188); test: hNGAL-induced intracellular profibrotic protein levels in human cardiac fibroblasts (Western blot); format: cell-based; set-up: % inhibition versus hNGAL on Col I protein level / % inhibition versus hNGAL on Col III protein level / % inhibition versus hNGAL on Fibronectin protein level / % inhibition versus hNGAL on Galectin 3 protein level: concentration or dose not given beside the values
T2 construct: purchased R&D Systems
Method: (§2) Primary human cardiac fibroblasts (HCF) were obtained from Promocell (Heidelberg, Germany) and maintained in Fibroblast Media 3 following manufacturer’s instructions (Promocell). Cells were used between passages 5 and 7. Cells were stimulated with recombinant hNGAL (500 ng/mL, R&D Systems) or with TGFβ (10 ng/mL, R&D Systems) for 24 h. To assess cell proliferation the MTT test was used following provider’s instructions (Roche). For protein analysis. Primary Mouse Kidney Fibroblasts (MKF) were isolated from Wild Type (WT) mice. Briefly, 8 weeks old mice were sacrificed by cervical dislocation and kidneys were cleaned and rinsed in cold DPBS (Dulbecco's Phosphate-Buffered Saline). The renal cortex was minced and incubated in Dulbecco’s modified eagle medium/Nutrient mixture F-12 (DMEM/F12, Sigma) containing 1 mg/mL collagenase A (Roche) during 25 min at 37 °C. The digestion was inactivated by adding culture medium (DMEM/F12 + 10% FBS) then the cell suspension was passed through a 100-μm cell strainer. After centrifugation, the pellet (containing MKF) was diluted with culture medium then plated in 75 cm^2 culture flask. After 24 h MKF were washed with DPBS before replacement of fresh culture medium. Thereafter, culture medium was changed every 48 h. Once 70–80% confluent, MKF were trypsinized and plated in 12 or 6-well plates. For experimental use, MKF were starved with culture medium containing only 3% FBS. MKF were treated with mNGAL (500 ng/mL, R&D Systems) or with TGFβ (10 ng/mL, R&D Systems) for 6 h for gene expression analysis.
Total protein aliquots of 20 μg were prepared from cardiac homogenates and HCF and electrophoresed on SDS polyacrylamide gels and transferred to Hybond-c Extra nitrocellulose membranes (Amersham Biosciences). Membranes were incubated with primary antibodies for: Collagen I (Santa Cruz; dilution 1:500), Collagen type III (Santa Cruz; dilution 1:500), fibronectin (Millipore, 1:500), Galectin-3 (Thermo, 1:1000), α-SMA (Sigma, 1:1000), CTGF (Santa Cruz, 1:200), CD68 (Abcam, 1:500), CD80 (Santa Cruz, 1:500), CD86 (Santa Cruz, 1:500). […] After densitometric analyses, optical density values were expressed as arbitrary units. Results are expressed as an n-fold increase over the values of the control group in densitometric arbitrary units.

hNGAL [2] = molecular target: T2, hNGAL; test: hNGAL-induced IL6 and Col I secretion in human cardiac fibroblasts (ELISA); format: cell-based; set-up: % inhibition versus hNGAL on IL-6 secretion: concentration or dose not given beside the values; conditions: for IL-6 secretion: hNGAL-treated human cardiac fibroblasts, mean ± SEM
Method: as §2
IL6 and collagen type I concentrations were measured in cardiac tissue and cell supernatants by ELISA according to the manufacturer's instructions (R&D Systems).

[3] = system: isolated hepatocytes from swiss mice; test: Hepatotoxicity, thiazolyl blue tetrazolium bromide (MTT) colorimetric assay; format: cell-based, mouse
Method: as §1

Aqueous solubility = format: physicochemical
Method: as §1

CYP3A4 = molecular target: T3, CYP3A4 (Homo sapiens, UniProt P08684); test: CYP3A4 inhibition assay (Vivid CYP3A4 assay); format: in vitro ADME
T3 construct: purchased Thermo Fisher Scientific
Method: as §1

hNGAL [4] = molecular target: T2, hNGAL; test: Cell proliferation (MTT) in hNGAL-treated human cardiac fibroblasts; format: cell-based
Method: as §2
Cell proliferation was assessed using the MTT Proliferation Assay (Sigma).

human plasma protein = test: Binding to human plasma protein; format: in vitro ADME
Method: as §1

[5] = Table S2, human cardiac fibroblasts
[6] = 10 µM, human cardiac fibroblasts, Fig. 1C
[7] = Table S4, second generation compounds and parents, Control 1.00, NGAL 1.45
[8] = Table S4, second generation compounds and parents, human cardiac fibroblasts

T2 sequence (P80188 21-198): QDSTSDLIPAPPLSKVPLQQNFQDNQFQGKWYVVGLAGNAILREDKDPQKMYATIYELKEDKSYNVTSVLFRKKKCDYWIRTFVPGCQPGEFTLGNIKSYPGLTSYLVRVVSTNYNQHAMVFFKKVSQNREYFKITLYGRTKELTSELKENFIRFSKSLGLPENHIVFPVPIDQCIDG
T3 sequence (P08684 whole entry): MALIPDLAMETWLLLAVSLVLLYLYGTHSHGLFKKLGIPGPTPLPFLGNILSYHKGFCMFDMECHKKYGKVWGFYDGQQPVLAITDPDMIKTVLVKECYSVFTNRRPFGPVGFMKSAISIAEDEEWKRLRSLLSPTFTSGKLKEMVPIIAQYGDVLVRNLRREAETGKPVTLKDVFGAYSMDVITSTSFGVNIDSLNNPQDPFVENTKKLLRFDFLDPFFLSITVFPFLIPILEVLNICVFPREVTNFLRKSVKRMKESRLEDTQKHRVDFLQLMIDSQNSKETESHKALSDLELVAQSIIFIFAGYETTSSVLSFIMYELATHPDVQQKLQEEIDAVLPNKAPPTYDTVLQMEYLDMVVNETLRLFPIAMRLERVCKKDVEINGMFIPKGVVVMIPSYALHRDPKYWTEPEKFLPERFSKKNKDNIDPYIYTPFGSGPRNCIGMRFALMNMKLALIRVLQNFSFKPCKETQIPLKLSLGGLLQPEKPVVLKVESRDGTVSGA
T1 sequence (Q12809 whole entry): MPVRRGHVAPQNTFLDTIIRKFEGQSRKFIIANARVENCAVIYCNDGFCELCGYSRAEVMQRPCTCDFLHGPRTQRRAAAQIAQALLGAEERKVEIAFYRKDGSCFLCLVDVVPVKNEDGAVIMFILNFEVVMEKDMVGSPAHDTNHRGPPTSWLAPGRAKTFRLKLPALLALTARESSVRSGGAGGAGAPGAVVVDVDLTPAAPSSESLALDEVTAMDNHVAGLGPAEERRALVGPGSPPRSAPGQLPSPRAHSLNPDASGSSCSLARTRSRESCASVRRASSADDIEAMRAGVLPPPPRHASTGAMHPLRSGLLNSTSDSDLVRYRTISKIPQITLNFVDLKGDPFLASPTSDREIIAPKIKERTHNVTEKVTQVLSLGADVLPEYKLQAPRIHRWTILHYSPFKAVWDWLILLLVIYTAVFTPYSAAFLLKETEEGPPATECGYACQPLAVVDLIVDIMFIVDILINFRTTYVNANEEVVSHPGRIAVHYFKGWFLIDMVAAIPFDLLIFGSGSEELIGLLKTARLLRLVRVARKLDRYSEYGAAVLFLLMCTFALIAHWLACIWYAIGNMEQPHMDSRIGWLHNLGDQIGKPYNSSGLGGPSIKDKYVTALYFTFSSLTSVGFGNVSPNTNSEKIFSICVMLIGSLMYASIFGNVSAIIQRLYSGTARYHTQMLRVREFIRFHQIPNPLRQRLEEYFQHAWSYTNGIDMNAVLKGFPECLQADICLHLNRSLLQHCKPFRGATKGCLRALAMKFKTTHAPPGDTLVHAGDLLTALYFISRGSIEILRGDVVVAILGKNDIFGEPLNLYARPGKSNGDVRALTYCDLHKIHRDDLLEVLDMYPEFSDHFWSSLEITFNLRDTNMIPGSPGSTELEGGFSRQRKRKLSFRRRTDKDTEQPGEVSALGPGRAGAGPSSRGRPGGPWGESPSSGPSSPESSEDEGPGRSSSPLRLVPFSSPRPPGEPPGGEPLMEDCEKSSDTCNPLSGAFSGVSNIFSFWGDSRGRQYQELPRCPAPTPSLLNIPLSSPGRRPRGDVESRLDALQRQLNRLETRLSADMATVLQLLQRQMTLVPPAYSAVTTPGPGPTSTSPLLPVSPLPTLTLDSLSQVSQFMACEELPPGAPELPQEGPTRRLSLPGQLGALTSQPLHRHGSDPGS

In the case of `CCS(=O)(=O)c1ccc2oc(SCc3cn4c(C)cc(C)nc4n3)nc2c1` [GPZ058225], the “Cardiotoxicity (hERG predictor assay), in words” value (hERG channel) is reported as “did not block the hERG channel”, the “Chemical Stability %” value (Chemical stability) is reported as 92.2% and the “hNGAL-induced expression of intracellular profibrotic proteins (Col I, Col III, fibronectin, Gal3), in words” value (hNGAL [1]; 10 µM, human cardiac fibroblasts, Fig. 1D) is reported as “blocked”. For the same compound, the “Col III synthesis (protein level)” value (hNGAL [1]; Table S2, hNGAL-treated human cardiac fibroblasts, Control 1.0, NGAL 1.67, mean ± SEM) was 1.05 ± 0.1, the “Fibronectin synthesis (protein level)” value (hNGAL [1]; Table S2, hNGAL-treated human cardiac fibroblasts, Control 1.0, NGAL 1.8, mean ± SEM) was 0.62 ± 0.1 and the “Col I synthesis (protein level)” value (hNGAL [1]; Table S2, hNGAL-treated human cardiac fibroblasts, Control 1.0, NGAL 2.03, mean ± SEM) was 1.27 ± 0.1. The “Galectin-3 synthesis (protein level)” value (hNGAL [1]; Table S2, hNGAL-treated human cardiac fibroblasts, Control 1.0, NGAL 2.1, mean ± SEM) was 1.0 ± 0.2, the “% inhibition versus hNGAL on Col I protein level” value (hNGAL [1]; [5]) was 37.5% and the “% inhibition versus hNGAL on Col III protein level” value (hNGAL [1]; [5]) was 37.1%. For the same compound, the “% inhibition versus hNGAL on Fibronectin protein level” value (hNGAL [1]; [5]) was 65.5%, the “% inhibition versus hNGAL on Galectin 3 protein level” value (hNGAL [1]; [5]) was 52.3% and the “Increase in IL6 secretion induced by NGAL” value (hNGAL [2]; 1 µM, human cardiac fibroblasts, Fig. S3) was “did not prevent”. The “NGAL-induced Col I secretion, in words” value (hNGAL [2]; [6]) was “fully inhibited”, the “NGAL-induced IL6 secretion, in words” value (hNGAL [2]; [6]) was “fully inhibited” and the IL-6 secretion (hNGAL [2]; Table S1, first generation compounds, Control 1.0 ± 0.1, NGAL 2.21 ± 0.2) was 0.99 ± 0.3. The “% inhibition versus hNGAL on IL-6 secretion” value (hNGAL [2]; Table S1, first generation compounds, human cardiac fibroblasts) was 55.2%, the IL-6 secretion (hNGAL [2]; [7]) was 0.72 ± 0.02 and the “% inhibition versus hNGAL on IL-6 secretion” value (hNGAL [2]; [8]) was 50.4%. The “Inhibitor effect on hNGAL-induced IL6 secretion, in words” value (hNGAL [2]; human cardiac fibroblasts, text on Tables S1 and S4) was “important inhibitor effect”, the “Hepatotoxicity (MTT)” value [3] was greater than 0.1 mM and the Hepatotoxicity ([3]; Table S5, MTT) was greater than 100 µM. For the same compound, the “Solubility in aqueous buffers, in words” value (Aqueous solubility) was “mild solubility problems”, the Solubility test (Aqueous solubility) was 63% and the Aquous solubility % (Aqueous solubility; Table S5) was 63.46%. For the same compound, the “CYP3A4 enzyme activity inhibited in a competition assay” value (CYP3A4) was 32%, the “CyP 3A4 Inhibition % (100= no inhibition)” value (CYP3A4; Table S5) was 68.07 ± 1.52% and the “hNGAL-induced cell proliferation, in words” value (hNGAL [4]; 10 µM, Fig. 1E) was “blocked”. For the same compound, the “Dose–response on proliferation induced by NGAL” value (hNGAL [4]; Fig. S2) was “able to block the proliferative effects of NGAL at 1 and 10 µM, but not at lower concentrations”, the “Plasma protein binding (PPB), in words” value (human plasma protein) was “within an acceptance range” and the hPPB% (human plasma protein; Table S5, human plasma protein binding) was 89.11%.
In the case of `O=C(Nc1nc2cc(F)c(F)cc2s1)c1cn2cccnc2n1` [GPZ278618], the IL-6 secretion (hNGAL [2]; [7]) is reported as 0.86± 0.02 and the “% inhibition versus hNGAL on IL-6 secretion” value (hNGAL [2]; [8]) is reported as 40.1%.
With `CC(=O)c1ccc(S(=O)(=O)Nc2ccccc2-n2cccn2)cc1` [GPZ478519] the IL-6 secretion (hNGAL [2]; [7]) was 0.69± 0.02 and the “% inhibition versus hNGAL on IL-6 secretion” value (hNGAL [2]; [8]) was 52.4%.
For `CC(=O)c1cccc(S(=O)(=O)NCc2ccccc2Cn2cccn2)c1` [GPZ505884], the IL-6 secretion (hNGAL [2]; [7]) was 0.83± 0.02 and the “% inhibition versus hNGAL on IL-6 secretion” value (hNGAL [2]; [8]) was 42.8%.
In the case of `CC(=O)c1cccc(S(=O)(=O)NCc2ccccc2-c2ccc(CN(C)C)cc2)c1` [GPZ642292], the IL-6 secretion (hNGAL [2]; [7]) is reported as 0.64± 0.02 and the “% inhibition versus hNGAL on IL-6 secretion” value (hNGAL [2]; [8]) is reported as 55.9%.
For `Cc1cc(C)n2cc(CSc3nc4ccccc4[nH]3)nc2n1` [GPZ743042], the IL-6 secretion (hNGAL [2]; [7]) was 0.94 ± 0.03 and the “% inhibition versus hNGAL on IL-6 secretion” value (hNGAL [2]; [8]) was 35.2%.
For `N#Cc1cccc(S(=O)(=O)NCc2cccc(-n3cccn3)c2)c1` [GPZ778195], the IL-6 secretion (hNGAL [2]; [7]) was 0.88± 0.04 and the “% inhibition versus hNGAL on IL-6 secretion” value (hNGAL [2]; [8]) was 39.3%.
In the case of `CC(=O)c1cccc(S(=O)(=O)NCc2ccccc2-c2ccsc2)c1` [GPZ863205], the IL-6 secretion (hNGAL [2]; [7]) is reported as 0.93± 0.03 and the “% inhibition versus hNGAL on IL-6 secretion” value (hNGAL [2]; [8]) is reported as 35.9%.
In the case of `CCN1CCN(Cc2ccccc2CNS(=O)(=O)c2cccc(C(C)=O)c2)CC1` [GPZ913629], the IL-6 secretion (hNGAL [2]; [7]) is reported as 0.93± 0.02 and the “% inhibition versus hNGAL on IL-6 secretion” value (hNGAL [2]; [8]) is reported as 35.9%.
